The source of these data is patent publication US20250127904A1, “SIGLEC LIGANDS, CONJUGATES, AND METHODS OF USE THEREOF” (Osprey Biopharmaceuticals, Inc., priority 2023, published 2025).

For test [1], the target named is T1, biotinylated mouse siglec-2-Fc-Avi (Mus musculus, UniProt P35329).
T1 construct: made in house
T1 sequence (P35329 22-708 limits assumed): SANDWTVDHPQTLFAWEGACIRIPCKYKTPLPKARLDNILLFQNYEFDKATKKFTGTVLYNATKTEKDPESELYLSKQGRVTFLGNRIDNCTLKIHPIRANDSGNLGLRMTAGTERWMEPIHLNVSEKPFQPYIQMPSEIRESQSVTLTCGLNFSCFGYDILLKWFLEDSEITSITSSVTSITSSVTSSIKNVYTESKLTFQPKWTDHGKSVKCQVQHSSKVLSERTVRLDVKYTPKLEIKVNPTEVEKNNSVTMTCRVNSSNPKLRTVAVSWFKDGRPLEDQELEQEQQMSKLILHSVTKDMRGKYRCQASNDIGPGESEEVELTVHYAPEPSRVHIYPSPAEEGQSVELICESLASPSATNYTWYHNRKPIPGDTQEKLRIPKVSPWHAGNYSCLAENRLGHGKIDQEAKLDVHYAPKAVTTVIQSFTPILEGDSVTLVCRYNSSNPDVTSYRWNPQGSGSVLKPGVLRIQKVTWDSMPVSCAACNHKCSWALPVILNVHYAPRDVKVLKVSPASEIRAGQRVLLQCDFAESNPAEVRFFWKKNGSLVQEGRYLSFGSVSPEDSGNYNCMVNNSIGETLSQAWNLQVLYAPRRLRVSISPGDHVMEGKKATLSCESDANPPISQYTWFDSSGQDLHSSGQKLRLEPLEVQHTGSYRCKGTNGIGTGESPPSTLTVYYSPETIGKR
Kind of test: SPR binding to mouse siglec-2/CD22. To be noted: steady-state analysis, read-out: Mouse CD22 affinity. On the procedure: (§1) The following proteins were used for CD22 ligand binding: biotinylated human siglec-2/CD22 protein-His-Avitag (Acro Biosystems, Cat #SI2-H82E3), biotinylated mouse siglec-2-Fc-Avi (in-house production), and recombinant cynomolgus siglec-2/CD22 His-tag (R&D systems, Cat #9864-SL-050). Prior to immobilization, CD22 proteins were treated with SialoExo (Genovis, Cat #G1-SM1-020) for 4 hours at 37° C. to remove native sialic acid residues.
(§2) Capture of biotinylated CD22 constructs was performed using a Cytiva SA chip (BR100398) on a Biacore 8K instrument. Human siglec 2 was immobilized on channels 1-4 and mouse siglec 2 on channels 5-8 on the active flow cell (2) and the reference flow cell (1) was immobilized with biotinylated human FGFR2 Fc Avi, an unrelated protein, to account for any nonspecific binding. Human siglec 2 and Mouse siglec 2 were diluted in running buffer to 20 μg/mL and injected on the active flow cell (2) for 300 seconds at 5 μL/min, yielding about 3500 RU of captured constructs.
(§3) Binding experiments of siglec-ligand conjugated proteins or Siglec ligand compounds were performed on the surfaces prepared above in 10 mM HEPES, 150 mM NaCl, 0.05% Tween-20, pH 7.5, 1% DMSO as the running buffer. Compounds were serially diluted in running buffer from 50 μM to 97.6 nM and injected over both the reference and active flow cells for 90 seconds at 30 μL/min. The compounds were then allowed to dissociate from the surface for 120 seconds. No regeneration was required as the compounds completely dissociated from the surface after 30 seconds. Solvent correction was performed using 0.5, 1, 1.5, and 2% DMSO spike into running buffer without DMSO. Data was analyzed using steady-state analysis in Biacore Insight Evaluation Software, version 3.0.
On the technique in general: Surface plasmon resonance follows binding to a sensor surface in real time, without labels.

In test [2] the target is T2, biotinylated human siglec-2/CD22 protein-His-Avitag (Homo sapiens, UniProt P20273).
T2 construct: purchased Acro Biosystems SI2-H82E3
T2 sequence (P20273 20-847): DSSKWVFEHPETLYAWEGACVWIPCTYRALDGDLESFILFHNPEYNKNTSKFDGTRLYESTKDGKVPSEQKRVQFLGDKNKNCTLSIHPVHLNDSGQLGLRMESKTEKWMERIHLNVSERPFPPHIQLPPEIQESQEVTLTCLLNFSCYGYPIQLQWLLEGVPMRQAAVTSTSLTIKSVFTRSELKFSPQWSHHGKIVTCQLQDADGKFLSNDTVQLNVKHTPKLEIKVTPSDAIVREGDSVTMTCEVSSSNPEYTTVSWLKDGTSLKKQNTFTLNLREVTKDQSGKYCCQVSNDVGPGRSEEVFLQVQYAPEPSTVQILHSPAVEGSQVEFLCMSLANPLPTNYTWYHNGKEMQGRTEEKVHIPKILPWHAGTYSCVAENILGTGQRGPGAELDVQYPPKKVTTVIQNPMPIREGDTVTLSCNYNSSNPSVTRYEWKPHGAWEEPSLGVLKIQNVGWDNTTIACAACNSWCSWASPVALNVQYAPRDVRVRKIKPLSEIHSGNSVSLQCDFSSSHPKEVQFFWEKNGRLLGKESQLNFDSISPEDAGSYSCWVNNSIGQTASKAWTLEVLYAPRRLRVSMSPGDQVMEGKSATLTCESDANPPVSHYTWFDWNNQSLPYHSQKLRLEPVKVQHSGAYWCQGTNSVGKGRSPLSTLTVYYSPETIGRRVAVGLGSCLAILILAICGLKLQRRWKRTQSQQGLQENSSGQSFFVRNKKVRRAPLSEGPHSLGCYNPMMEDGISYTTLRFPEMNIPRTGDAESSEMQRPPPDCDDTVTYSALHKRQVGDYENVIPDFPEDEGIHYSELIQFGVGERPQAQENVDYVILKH
Kind of test: SPR binding to human siglec-2/CD22. To be noted: steady-state analysis, read-out: Human CD22 affinity. The method, then: as §1, §2, §3

The target of test [3] is recombinant cynomolgus siglec-2/CD22 His-tag (Macaca fascicularis, UniProt A0A2K5WCZ6). Kind of test: SPR binding to cynomolgus siglec-2/CD22. To be noted: steady-state analysis, read-out: Cyno CD22 affinity. The method, then: as §1
Surface preparation for cyno CD22 protein consisted of amine coupling to Cytiva CM5 chip (Cytiva, Cat #BR100530) using the Cytiva amine coupling kit Type 2 (Cytiva, Cat #BR100633). Following the standard amine coupling protocols, EDC and NHS from the kit were mixed 1:1 and injected over flow cells 1 and 2. Cyno CD22 was then immobilized by injecting 10 μg/mL in Sodium Acetate, pH 5.5 onto flow cell (2) for 420 seconds at 10 uL/min, yielding approximately 2500 RU of captured protein. Any active carboxy groups were then capped with 1M Ethanolamine, pH 8.5 for 420 s on flow cells 1 and 2.
as §3

SMILES strings stand for the structures.

Chain of recombinant cynomolgus siglec-2/CD22 His-tag (A0A2K5WCZ6 entry or part of it): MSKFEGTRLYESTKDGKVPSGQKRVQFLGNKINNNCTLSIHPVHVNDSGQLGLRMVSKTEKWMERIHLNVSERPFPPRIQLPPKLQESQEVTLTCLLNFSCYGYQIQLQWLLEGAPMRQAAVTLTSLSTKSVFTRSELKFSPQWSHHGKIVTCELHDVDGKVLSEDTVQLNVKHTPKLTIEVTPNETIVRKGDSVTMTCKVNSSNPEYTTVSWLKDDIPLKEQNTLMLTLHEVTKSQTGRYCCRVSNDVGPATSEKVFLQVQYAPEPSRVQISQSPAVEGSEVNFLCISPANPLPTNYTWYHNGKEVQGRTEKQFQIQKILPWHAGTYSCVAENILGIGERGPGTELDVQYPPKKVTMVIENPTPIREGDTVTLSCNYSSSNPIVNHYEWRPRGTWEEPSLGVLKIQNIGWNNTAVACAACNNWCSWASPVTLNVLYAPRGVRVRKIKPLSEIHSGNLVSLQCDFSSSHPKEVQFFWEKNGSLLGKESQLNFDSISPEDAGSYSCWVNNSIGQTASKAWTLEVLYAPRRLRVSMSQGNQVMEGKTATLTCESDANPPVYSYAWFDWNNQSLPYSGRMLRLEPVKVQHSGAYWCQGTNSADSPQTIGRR

As for `C#CCOCCOCCOCc1ccc(CC(=O)NC[C@@H](O)[C@@H](O)[C@@H]2O[C@@](OCc3ccccc3)(C(=O)O)C[C@H](O)[C@H]2NC(=O)CO)cc1` [Compound 9, (2R,4S,5R,6R)-2-(benzyloxy)-6-((1R,2R)-1,2-dihydroxy-3-(2-(4-((2-(2-(prop-2-yn-1-yloxy)ethoxy)ethoxy)methyl)phenyl)acetamido)propyl)-4-hydroxy-5-(2-hydroxyacetamido)tetrahydro-2H-pyran-2-carboxylic acid], the Kd in test [1], in test [2] and in test [3] was 1000 to 10000 nM in each case.

Take `C#Cc1ccc(CC(=O)NC[C@@H](O)[C@@H](O)[C@@H]2O[C@@](OCCCCCCOC)(C(=O)O)C[C@H](O)[C@H]2NC(=O)CO)cc1` [Compound 11, (2R,4S,5R,6R)-6-((1R,2R)-3-(2-(4-ethynylphenyl)acetamido)-1,2-dihydroxypropyl)-4-hydroxy-5-(2-hydroxyacetamido)-2-((6-methoxyhexyl)oxy)tetrahydro-2H-pyran-2-carboxylic acid]: the Kd in test [1] was 1000 to 10000 nM; in test [2] it was less than 1000 nM; in test [3], less than 1000 nM.

Take `C#Cc1ccc(CC(=O)NC[C@@H](O)[C@@H](O)[C@@H]2O[C@@](SCc3ccccc3)(C(=O)O)C[C@H](O)[C@H]2NC(=O)CO)cc1` [Compound 12, (2S,4S,5R,6R)-2-(benzylthio)-6-((1R,2R)-3-(2-(4-ethynylphenyl)acetamido)-1,2-dihydroxypropyl)-4-hydroxy-5-(2-hydroxyacetamido)tetrahydro-2H-pyran-2-carboxylic acid]: the Kd in test [1], in test [2] and in test [3] was less than 1000 nM each time.

On to `C#CCOCCCCCCCc1ccc(CC(=O)NC[C@@H](O)[C@@H](O)[C@@H]2O[C@@](OCc3ccccc3)(C(=O)O)C[C@H](O)[C@H]2NC(=O)CO)cc1` [Compound 13, (2R,4S,5R,6R)-2-(benzyloxy)-6-((1R,2R)-1,2-dihydroxy-3-(2-(4-(7-(prop-2-yn-1-yloxy)heptyl)phenyl)acetamido)propyl)-4-hydroxy-5-(2-hydroxyacetamido)tetrahydro-2H-pyran-2-carboxylic acid], for which the Kd in test [1], in test [2] and in test [3] was 1000 to 10000 nM throughout.

Consider `O=C(O)CCCCCCCCC#Cc1ccc(CC(=O)NC[C@@H](O)[C@@H](O)[C@@H]2O[C@@](OCc3ccccc3)(C(=O)O)C[C@H](O)[C@H]2NC(=O)CO)cc1` [Compound 14, (2R,4S,5R,6R)-2-(benzyloxy)-6-((1R,2R)-3-(2-(4-(10-carboxydec-1-yn-1-yl)phenyl)acetamido)-1,2-dihydroxypropyl)-4-hydroxy-5-(2-hydroxyacetamido)tetrahydro-2H-pyran-2-carboxylic acid], for which the Kd was less than 1000 nM in test [1], 1000 to 10000 nM in test [2] and 1000 to 10000 nM in test [3].

`C#CCOCCOCCOc1ccc(CC(=O)NC[C@@H](O)[C@@H](O)[C@@H]2O[C@@](OCc3ccccc3)(C(=O)O)C[C@H](O)[C@H]2NC(=O)CO)cc1` [Compound 15, (2R,4S,5R,6R)-2-(benzyloxy)-6-((1R,2R)-1,2-dihydroxy-3-(2-(4-(2-(2-(prop-2-yn-1-yloxy)ethoxy)ethoxy)phenyl)acetamido)propyl)-4-hydroxy-5-(2-hydroxyacetamido)tetrahydro-2H-pyran-2-carboxylic acid]: the Kd in test [1], in test [2] and in test [3] was 1000 to 10000 nM in each case.

Turning to `CCCCCCO[C@]1(C(=O)O)C[C@H](O)[C@@H](NC(=O)CO)[C@H]([C@H](O)[C@H](O)CNC(=O)Cc2ccc(-c3cn(CCOCCOCCOCCC(=O)NCC)nn3)cc2)O1` [Compound 16, (2R,4S,5R,6R)-6-((1R,2R)-1,2-dihydroxy-3-(2-(4-(1-(12-oxo-3,6,9-trioxa-13-azapentadecyl)-1H-1,2,3-triazol-4-yl)phenyl)acetamido)propyl)-2-(hexyloxy)-4-hydroxy-5-(2-hydroxyacetamido)tetrahydro-2H-pyran-2-carboxylic acid], the Kd in test [1], in test [2] and in test [3] was less than 1000 nM each time.

As to `C#CCO[C@H]1C[C@](OCc2ccccc2)(C(=O)O)O[C@@H]([C@H](O)[C@H](O)CNC(=O)Cc2ccc(Cl)cc2)[C@@H]1NC(=O)CO` [Compound 18, (2R,4S,5R,6R)-2-(benzyloxy)-6-((1R,2R)-3-(2-(4-chlorophenyl)acetamido)-1,2-dihydroxypropyl)-5-(2-hydroxyacetamido)-4-(prop-2-yn-1-yloxy)tetrahydro-2H-pyran-2-carboxylic acid], the Kd in test [1], in test [2] and in test [3] was 1000 to 10000 nM in each case.

For the compound `CCCNC(=O)CCOCCOCCOCCn1cc(CO[C@H]2C[C@](OCc3ccccc3)(C(=O)O)O[C@@H]([C@H](O)[C@H](O)CNC(=O)Cc3ccc(Cl)cc3)[C@@H]2NC(=O)CO)nn1` [Compound 19, (2R,4S,5R,6R)-2-(benzyloxy)-6-((1R,2R)-3-(2-(4-chlorophenyl)acetamido)-1,2-dihydroxypropyl)-5-(2-hydroxyacetamido)-4-((1-(12-oxo-3,6,9-trioxa-13-azahexadecyl)-1H-1,2,3-triazol-4-yl)methoxy)tetrahydro-2H-pyran-2-carboxylic acid], the Kd in test [1], in test [2] and in test [3] was 1000 to 10000 nM in each case.

Take `C#CCO[C@H]1C[C@](OCCCCCC(=O)O)(C(=O)O)O[C@@H]([C@H](O)[C@H](O)CNC(=O)Cc2ccc(Cl)cc2)[C@@H]1NC(=O)CO` [Compound 20, (2R,4S,5R,6R)-2-((5-carboxypentyl)oxy)-6-((1R,2R)-3-(2-(4-chlorophenyl)acetamido)-1,2-dihydroxypropyl)-5-(2-hydroxyacetamido)-4-(prop-2-yn-1-yloxy)tetrahydro-2H-pyran-2-carboxylic acid]: the Kd in test [1], in test [2] and in test [3] was 1000 to 10000 nM each time.
